Experimental data: DBAASP
In brackets after ≈: the same amount, converted by molar mass. Several values for one entry are separate records, joined by “and”; a condition that tells them apart may be missing. Identical values can stand only once.

Experiments:
Assay in all cases: ≥ marks a high value that may be exact or a test limit, other limits are often not marked, values filed in µg/mL are converted to µM
[1] = system: Staphylococcus aureus ATCC 25923
[2] = system: Escherichia coli ATCC 25922
[3] = system: Pseudomonas aeruginosa ATCC 27853

Compound | MIC [1] | MIC [2] | MIC [3]
CC[C@H](C)[C@H](NC(=O)[C@H](CCCN=C(N)N)NC(=O)[C@H](CCCCN)NC(=O)[C@H](CC(C)C)NC(=O)[C@H](CC(C)C)NC(=O)[C@H](C)N)C(=O)N[C@@H](CCCCN)C(=O)N[C@H](C(=O)N[C@@H](CC(C)C)C(=O)N[C@@H](CC(C)C)C(N)=O)[C@@H](C)O [ALLKRIKTLL] | > 18 µM | > 18 µM | –
CC(C)C[C@H](NC(=O)[C@H](CC(C)C)NC(=O)[C@H](CCCCN)NC(=O)[C@H](CCCCN)NC(=O)[C@H](C)NC(=O)[C@H](CC(C)C)NC(=O)[C@H](CCCCN)NC(=O)[C@H](CC(C)C)NC(=O)[C@@H](N)Cc1ccccc1)C(N)=O [FLKLAKKLL] | – | – | 59.6 µM and 119 µM
CC[C@H](C)[C@H](NC(=O)[C@H](CCCN=C(N)N)NC(=O)[C@H](CCCCN)NC(=O)[C@H](CC(C)C)NC(=O)[C@H](CC(C)C)NC(=O)CN)C(=O)N[C@@H](CCCCN)C(=O)N[C@@H](C)C(=O)N[C@@H](CC(C)C)C(=O)N[C@@H](CC(C)C)C(N)=O [GLLKRIKALL] | 7.11 µM (≈ 7.99 µg/mL) | 14.2 µM (≈ 16 µg/mL) | –
CC[C@H](C)[C@H](NC(=O)CNC(=O)[C@H](CCC(N)=O)NC(=O)[C@H](C)NC(=O)[C@@H](NC(=O)[C@H](CCCCN)NC(=O)[C@H](CCCCN)NC(=O)[C@H](CC(C)C)NC(=O)[C@H](C)NC(=O)[C@H](CC(N)=O)NC(=O)[C@H](CC(C)C)NC(=O)CN)C(C)C)C(=O)N[C@@H](Cc1cnc[nH]1)C(=O)N[C@@H](CCC(=O)O)C(=O)N[C@@H](C)C(=O)N[C@H](C(=O)N[C@@H](CCCCN)C(=O)N[C@@H](CC(C)C)C(=O)N[C@H](C(=O)N[C@@H](CC(N)=O)C(=O)N[C@@H](CC(N)=O)C(=O)N[C@@H](Cc1cnc[nH]1)C(=O)N[C@H](C(=O)N[C@@H](CCC(N)=O)C(N)=O)C(C)C)[C@@H](C)CC)[C@@H](C)CC [GLNALKKVAQGIHEAIKLINNHVQ] | – | 11.3 µM (≈ 29.5 µg/mL) | –
CC[C@H](C)[C@H](NC(=O)[C@H](C)NC(=O)CNC(=O)[C@H](C)NC(=O)[C@H](CCCCN)NC(=O)[C@H](CO)NC(=O)[C@H](C)NC(=O)[C@H](CCSC)NC(=O)CN)C(=O)N[C@@H](C)C(=O)NCC(=O)N[C@@H](CCCCN)C(=O)N[C@H](C(=O)N[C@@H](C)C(=O)N[C@@H](CCCCN)C(=O)N[C@H](C(=O)N[C@@H](C)C(=O)N[C@@H](Cc1c[nH]c2ccccc12)C(=O)N[C@@H](CCCCN)C(=O)N[C@@H](C)C(=O)N[C@@H](CC(C)C)C(=O)NCC(=O)NCC(=O)N[C@@H](CS)C(N)=O)C(C)C)[C@@H](C)CC [GMASKAGAIAGKIAKVAWKALGGC] | – | 4.42 µM (≈ 9.98 µg/mL) | –
CC[C@H](C)[C@H](NC(=O)[C@H](C)NC(=O)[C@@H](NC(=O)[C@H](C)NC(=O)[C@H](CCCCN)NC(=O)[C@H](C)NC(=O)[C@H](CC(C)C)NC(=O)[C@H](CCCCN)NC(=O)CNC(=O)[C@H](CC(C)C)NC(=O)[C@@H](NC(=O)[C@H](CO)NC(=O)CNC(=O)[C@H](C)NC(=O)[C@@H](NC(=O)[C@H](CO)NC(=O)[C@H](C)NC(=O)[C@H](CCSC)NC(=O)CN)[C@@H](C)O)C(C)C)C(C)C)C(=O)NCC(=O)N[C@@H](C)C(=O)N[C@@H](CC(C)C)C(N)=O [GMASTAGSVLGKLAKAVAIGAL] | > 200 µM | > 200 µM | –
CC[C@H](C)[C@H](NC(=O)[C@H](CCCN=C(N)N)NC(=O)[C@H](CCCCN)NC(=O)[C@H](CCSC)NC(=O)[C@H](CCSC)NC(=O)CN)C(=O)N[C@@H](CCCCN)C(=O)N[C@H](C(=O)N[C@@H](CCSC)C(=O)N[C@@H](CCSC)C(N)=O)[C@@H](C)O [GMMKRIKTMM] | – | > 200 µM | –
CC[C@H](C)[C@H](NC(=O)[C@H](Cc1c[nH]c2ccccc12)NC(=O)[C@H](Cc1c[nH]c2ccccc12)NC(=O)[C@H](Cc1c[nH]c2ccccc12)NC(=O)[C@H](Cc1c[nH]c2ccccc12)NC(=O)[C@H](CCCCN)NC(=O)[C@H](CCCCN)NC(=O)[C@H](CCCCN)NC(=O)[C@@H](N)CCCCN)C(N)=O [KKKKWWWWI] | – | 5.76 µM (≈ 7.99 µg/mL) | –
CC[C@H](C)[C@H](NC(=O)[C@H](CC(C)C)NC(=O)[C@H](C)NC(=O)[C@@H]1CCCN1C(=O)[C@H](CC(C)C)NC(=O)CNC(=O)[C@@H](NC(=O)[C@@H](NC(=O)[C@H](CC(C)C)NC(=O)[C@@H](NC(=O)[C@H](CCCCN)NC(=O)[C@H](CCCCN)NC(=O)[C@H](C)NC(=O)[C@H](C)NC(=O)[C@H](CO)NC(=O)[C@@H](NC(=O)[C@H](CC(C)C)NC(=O)[C@H](CCCCN)NC(=O)[C@H](CCCCN)NC(=O)[C@@H](NC(=O)[C@H](Cc1ccccc1)NC(=O)[C@H](CCCCN)NC(=O)[C@H](CCCCN)NC(=O)[C@H](Cc1c[nH]c2ccccc12)NC(=O)[C@@H](N)CCCCN)[C@@H](C)CC)[C@@H](C)O)C(C)C)[C@@H](C)O)[C@@H](C)O)C(=O)N[C@@H](CO)C(=O)O [KWKKFIKKLTSAAKKVLTTGLPALIS] | – | – | 4 µM (≈ 11.5 µg/mL)
CC(C)C[C@H](NC(=O)[C@H](CCCN=C(N)N)NC(=O)[C@H](CCCN=C(N)N)NC(=O)[C@H](CC(C)C)NC(=O)[C@H](Cc1c[nH]c2ccccc12)NC(=O)[C@H](CCCN=C(N)N)NC(=O)[C@H](Cc1c[nH]c2ccccc12)NC(=O)[C@@H](NC(=O)[C@H](CCCCN)NC(=O)[C@H](CCCN=C(N)N)NC(=O)[C@@H](N)CC(C)C)C(C)C)C(N)=O [LRKVWRWLRRL] | 10 µM (≈ 15.8 µg/mL) | – | –
CC[C@H](C)[C@H](NC(=O)[C@H](Cc1ccc(O)cc1)NC(=O)[C@H](CCC(N)=O)NC(=O)[C@H](CC(C)C)NC(=O)[C@H](C)NC(=O)[C@H](CCCCN)NC(=O)[C@H](CCCCN)NC(=O)[C@H](CCSC)NC(=O)[C@H](CCCCN)NC(=O)[C@H](CCCCN)NC(=O)[C@H](CCCCN)NC(=O)[C@H](CCCN=C(N)N)NC(=O)[C@H](CCCN=C(N)N)NC(=O)[C@H](Cc1ccc(O)cc1)NC(=O)[C@@H](N)CCCN=C(N)N)C(=O)N[C@@H](CCCCN)C(=O)N[C@@H](CC(C)C)C(N)=O [RYRRKKKMKKALQYIKL] | – | > 100 µM | > 100 µM

Results, then the compound that gave them:

MIC [1] | MIC [2] | MIC [3] | Compound
– | 120 µM (≈ 378 µg/mL) | – | CC[C@H](C)[C@H](NC(=O)[C@@H](NC(=O)[C@@H](NC(=O)CNC(=O)[C@H](C)NC(=O)[C@@H](NC(=O)[C@H](CC(N)=O)NC(=O)[C@@H](NC(=O)[C@H](C)NC(=O)[C@H](CC(C)C)NC(=O)[C@H](CC(N)=O)NC(=O)[C@H](CCCCN)NC(=O)[C@@H](NC(=O)[C@@H](NC(=O)[C@H](CO)NC(=O)[C@H](CC(C)C)NC(=O)[C@H](Cc1ccccc1)NC(=O)CN)[C@@H](C)O)C(C)C)[C@@H](C)O)C(C)C)[C@@H](C)O)C(C)C)C(=O)N[C@@H](CC(=O)O)C(=O)N[C@H](C(=O)N[C@@H](CC(C)C)C(=O)N[C@@H](CCCCN)C(=O)N[C@H]1CSSC[C@@H](C(=O)N[C@@H](CCCN=C(N)N)C(=O)N[C@@H](CO)C(=O)O)NC(=O)CNC(=O)CNC(=O)[C@H]([C@@H](C)O)NC(=O)[C@H](C(C)C)NC(=O)[C@H](CCCCN)NC1=O)[C@@H](C)O [GFLSTVKNLATNVAGTVIDTLKCKVTGGCRS]
276 µM (≈ 512 µg/mL) | 69 µM (≈ 128 µg/mL) | – | CC[C@H](C)[C@H](NC(=O)CNC(=O)[C@@H](NC(=O)[C@H](CCCCN)NC(=O)[C@@H](NC(=O)[C@H](CCCCN)NC(=O)CN)C(C)C)[C@@H](C)CC)C(=O)N[C@@H](CC(N)=O)C(=O)NCC(=O)N[C@@H](Cc1ccccc1)C(=O)NCC(=O)N[C@@H](CCCN=C(N)N)C(=O)N[C@H](C(=O)NCC(=O)N[C@@H](CCCN=C(N)N)C(=O)N[C@@H](CC(C)C)C(=O)N[C@H](C(=O)N[C@@H](C)C(=O)O)C(C)C)[C@@H](C)CC [GKVKIGINGFGRIGRLVA]
– | – | 32 µM (≈ 52 µg/mL) | CC(C)C[C@H](NC(=O)[C@H](Cc1c[nH]c2ccccc12)NC(=O)[C@H](C)NC(=O)CNC(=O)[C@H](Cc1c[nH]c2ccccc12)NC(=O)[C@H](CC(N)=O)NC(=O)[C@@H](N)CC(C)C)C(=O)N[C@@H](CCCCN)C(=O)N[C@@H](Cc1cnc[nH]1)C(=O)N[C@@H](Cc1c[nH]c2ccccc12)C(=O)N[C@@H](Cc1c[nH]c2ccccc12)C(=O)N[C@@H](CCCCN)C(=O)O [LNWGAWLKHWWK]
– | 4.48 µM (≈ 20 µg/mL) | – | CC[C@H](C)[C@@H]1NC(=O)[C@H](CCCCN)NC(=O)[C@@H]2CCCN2C(=O)[C@H](Cc2cnc[nH]2)NC(=O)CNC(=O)[C@@H]2CSSC[C@@H]3NC(=O)[C@H](CO)NC(=O)CNC(=O)CNC(=O)[C@H](Cc4ccc(O)cc4)NC(=O)[C@H](CO)NC(=O)[C@H](CCSC)NC(=O)[C@@H](NC(=O)[C@@H](NC(=O)[C@@H](NC(=O)[C@@H]4CCCN4C(=O)[C@H](CO)NC(=O)[C@H](CC(N)=O)NC(=O)[C@@H](NC(=O)[C@H](CC(C)C)NC(=O)[C@@H](N)CCC(N)=O)[C@@H](C)CC)C(C)C)[C@@H](C)O)CSSC[C@H](NC(=O)[C@H](CCCN=C(N)N)NC1=O)C(=O)N[C@H](C(=O)N[C@@H](CCCN=C(N)N)C(=O)N[C@@H](CCCN=C(N)N)C(=O)N[C@@H](CCCCN)C(=O)O)CSSC[C@H](NC(=O)[C@H](CO)NC(=O)[C@H](CCCN=C(N)N)NC(=O)[C@H](CCC(N)=O)NC3=O)C(=O)N[C@@H](CC(N)=O)C(=O)NCC(=O)NCC(=O)N[C@@H](Cc1ccccc1)C(=O)N[C@@H](CCCN=C(N)N)C(=O)N[C@@H](CC(C)C)C(=O)NCC(=O)NCC(=O)N[C@@H](Cc1cnc[nH]1)C(=O)N2 [QLINSPVTCMSYGGSCQRSCNGGFRLGGHCGHPKIRCCRRK]
12.7 µM (≈ 25 µg/mL) | – | – | CC(C)C[C@H](NC(=O)[C@H](C)NC(=O)[C@@H](N)CO)C(=O)N[C@H](C(=O)NCC(=O)N[C@H]1CSSC[C@@H](C(=O)N[C@@H](Cc2ccccc2)C(=O)NCC(=O)N[C@@H](CCCN=C(N)N)C(=O)O)NC(=O)[C@@H]2CCCN2C(=O)[C@H](CCCCN)NC(=O)[C@@H]2CCCN2C(=O)[C@@H]2CCCN2C(=O)[C@H](Cc2ccc(O)cc2)NC(=O)[C@H](CO)NC(=O)[C@H](CCCCN)NC(=O)[C@H]([C@@H](C)O)NC(=O)CNC1=O)C(C)C [SALVGCGTKSYPPKPCFGR]
– | 16 µM (≈ 29.7 µg/mL) | – | CC(C)C[C@H](NC(=O)[C@H](Cc1ccccc1)NC(=O)[C@@H]1CCCN1C(=O)[C@H](Cc1ccc(O)cc1)NC(=O)[C@H](Cc1ccc(O)cc1)NC(=O)[C@H](Cc1c[nH]c2ccccc12)NC(=O)[C@@H]1CCCN1C(=O)[C@H](Cc1ccccc1)NC(=O)[C@H](CCCN=C(N)N)NC(=O)[C@H](CCCN=C(N)N)NC(=O)[C@@H](N)C(C)C)C(=O)N[C@@H](CCCN=C(N)N)C(=O)N[C@@H](CCCN=C(N)N)C(N)=O [VRRFPWYYPFLRR]
